Assays:
Assay type in all cases: cell-based
HT29 = assay: Cell proliferative assay (MTT), HT29; details: Homo sapiens, HT-29, 72 h incubation, read-out: IC50s HT29
Protocol: (§1) The synthesized compounds were evaluated for their cytotoxin activity against suspended tumor cells. These cells were seeded on 96-well plates and incubated for 24 h. Selected compounds were added at various doses and incubated for 72 h, MTT was then added, and the absorbance was measured at a wavelength of 590 nm. IC50 values are expressed as the mean±SEM from the dose-response curves of at least three independent experiments.

SW620 = assay: Cell proliferative assay (MTT), SW620; details: Homo sapiens, SW-620, 72 h incubation, read-out: IC50s SW620
Protocol: as §1

K562 = assay: Cell proliferative assay (MTT), K562; details: Homo sapiens, 72 h incubation, read-out: IC50s K562
How it was run: (§2)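 Seed cells, incubate 24 h, add compounds at various doses, incubate 72 h, add MTT, measure absorbance at 590 nm. IC50 from dose-response curves, mean±SEM of ≥3 experiments.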

HCT116 = assay: Cell proliferative assay (MTT), HCT116; details: Homo sapiens, HCT-116, 72 h incubation, read-out: IC50s HCT116
Protocol: as §1

HepG2 = assay: Cell proliferative assay (MTT), HepG2; details: Homo sapiens, 72 h incubation, read-out: IC50s HepG2
How it was run: as §2

IC50 (HT29) [µM]	IC50 (SW620) [µM]	IC50 (K562) [µM]	IC50 (HCT116) [µM]	IC50 (HepG2) [µM]	Compound
> 10	> 10	> 10	> 10	> 10	COc1ccc(/C=C/C(=O)c2ccc(OC)c3c2OC(C)(C)C=C3)cn1 [SKLBC-21, (E)-1-(5-methoxy-2,2-dimethyl-2H-chromen-8-yl)-3-(6-methoxypyridin-3-yl)prop-2-en-1-one]
> 10	> 10	> 10	> 10	> 10	COc1ccc(C(=O)/C=C/c2ccc(O)cc2)c2c1C=CC(C)(C)O2 [SKLBC-22, (E)-3-(4-hydroxyphenyl)-1-(5-methoxy-2,2-dimethyl-2H-chromen-8-yl)prop-2-en-1-one]
> 10	> 10	> 10	> 10	> 10	COc1ccc(C(=O)/C=C/c2cccc(O)c2)c2c1C=CC(C)(C)O2 [SKLBC-23, (E)-3-(3-hydroxyphenyl)-1-(5-methoxy-2,2-dimethyl-2H-chromen-8-yl)prop-2-en-1-one]
> 10	> 10	> 10	> 10	> 10	COc1ccc(C(=O)/C=C/c2ccc(OC)c(OC)c2OC)c2c1C=CC(C)(C)O2 [SKLBC-24, (E)-1-(5-methoxy-2,2-dimethyl-2H-chromen-8-yl)-3-(2,3,4-trimethoxyphenyl)prop-2-en-1-one]
> 10	> 10	> 10	9.71	> 10	COc1ccc(C(=O)/C=C/c2cccc(C(F)(F)F)c2)c2c1C=CC(C)(C)O2 [SKLBC-25, (E)-1-(5-methoxy-2,2-dimethyl-2H-chromen-8-yl)-3-(3-(trifluoromethyl)phenyl)prop-2-en-1-one]
> 10	> 10	> 10	> 10	> 10	CCOc1cc(/C=C/C(=O)c2ccc(OC)c3c2OC(C)(C)C=C3)ccc1O [SKLBC-26, (E)-3-(3-ethoxy-4-hydroxyphenyl)-1-(5-methoxy-2,2-dimethyl-2H-chromen-8-yl)prop-2-en-1-one]
> 10	> 10	> 10	> 10	> 10	COc1ccc(C(=O)/C=C/c2ccsc2)c2c1C=CC(C)(C)O2 [SKLBC-27, (E)-1-(5-methoxy-2,2-dimethyl-2H-chromen-8-yl)-3-(thiophen-3-yl)prop-2-en-1-one]
> 10	> 10	> 10	> 10	> 10	COc1ccc(C(=O)/C=C/c2ccc(O)c(Br)c2)c2c1C=CC(C)(C)O2 [SKLBC-29, (E)-3-(3-bromo-4-hydroxyphenyl)-1-(5-methoxy-2,2-dimethyl-2H-chromen-8-yl)prop-2-en-1-one]
> 10	> 10	> 10	> 10	> 10	COc1cc(/C=C/C(=O)c2ccc(OC)c3c2OC(C)(C)C=C3)cc(OC)c1O [SKLBC-30, (E)-3-(4-hydroxy-3,5-dimethoxyphenyl)-1-(5-methoxy-2,2-dimethyl-2H-chromen-8-yl)prop-2-en-1-one]
> 10	> 10	> 10	> 10	> 10	COc1ccc(C(=O)/C=C/c2ccco2)c2c1C=CC(C)(C)O2 [SKLBC-31, (E)-3-(furan-2-yl)-1-(5-methoxy-2,2-dimethyl-2H-chromen-8-yl)prop-2-en-1-one]
> 10	> 10	> 10	> 10	> 10	COc1ccc(C(=O)/C=C/c2cccc3ccccc23)c2c1C=CC(C)(C)O2 [SKLBC-32, (E)-1-(5-methoxy-2,2-dimethyl-2H-chromen-8-yl)-3-(naphthalen-1-yl)prop-2-en-1-one]
> 10	> 10	> 10	> 10	> 10	COc1ccc(C(=O)/C=C/c2ccc(Cl)cc2)c2c1C=CC(C)(C)O2 [SKLBC-34, (E)-3-(4-chlorophenyl)-1-(5-methoxy-2,2-dimethyl-2H-chromen-8-yl)prop-2-en-1-one]

From patent publication US9394268B2, “(E)-1-(5-methoxy-2,2-dimethyl-2H-chromen-8-yl)-3-(4-methoxyphenyl)prop-2-en-1-one and analogs thereof, as well as preparation method and use thereof” (Sichuan University, priority 2012, dated 2016)
